The text below walks through data of publication PMC5845353, “The selective cathepsin K inhibitor MIV-711 attenuates joint pathology in experimental animal models of osteoarthritis” (Journal of Translational Medicine, 2018).

The test system of assay [1] is bone resorption biomarker HP-1. The experiment in a line: Urinary HP-1 (bone resorption biomarker) in ACLT rabbits. The assay is classed as in vivo, rabbit. On the procedure: Starting 1 week after sham operation or ACLT, animals were dosed daily for 7 weeks by oral gavage with either MIV-711 (synthesized by Medivir and given as a suspension in 1% Methocel A4C in water) or vehicle (1% Methocel A4C in water) at a dose volume of 4 mL/kg. The four treatment groups (n = 7 in each group) were: (1) sham + vehicle; (2) ACLT + vehicle; (3) ACLT + MIV-711, 30 µmol/kg (low dose) and (4) ACLT + MIV-711, 100 µmol/kg (high dose).
Urine was collected in the morning from all animals for biomarker measurements before surgery, before dosing on Day 1, Day 10 and during Week 4 and Week 7. The urine was stored frozen (− 70 to − 80 °C) until analysis.
In rabbits, conventional CTX-I assays to assess bone resorption cannot be used due to species differences. Instead, urinary helical peptide (HP-1) concentrations were measured in rabbits using the MicroVue Helical Peptide kit (Ref: 8022) from Quidel (San Diego, CA) according to the instructions supplied by the manufacturer. In dogs, urinary levels of C-terminal telopeptide of collagen type I (CTX-I) were measured using a commercially available kit (Urine BETA CrossLaps ELISA, Ref: AC-05F1, IDS Nordic Bioscience Diagnostics A/S). In rabbits and dogs, urinary concentrations of C-terminal telopeptide of collagen type II (CTX-II) were measured using the Urine CartiLaps EIA kit (Ref: AC-10F1) from Immunodiagnostics Systems (IDS, Herlev, Denmark) according to the instructions supplied by the manufacturer. In dogs, CTX-II levels were also measured in synovial fluid. Before ELISA analysis, 95 µL of synovial fluid was mixed with 5 µL of hyaluronidase (100 U/mL, Sigma, H-3884). The mixture was incubated overnight at 35 °C. The mixture was then used to measure CTX-II levels (Serum Pre-Clinical CartiLaps ELISA, Ref: AC-08F1, IDS Nordic Bioscience Diagnostics A/S). The creatinine levels in urine were determined at Swedish University of Agricultural Sciences (Uppsala, Sweden), using the enzymatic assay (Cat No. 8L24-01) on the Abbott system Architect c4000.

Assay [2] deals with dogs subjected to partial medial meniscectomy. Briefly: Dog partial medial meniscectomy study, gross macroscopic scoring. The assay is classed as in vivo. To be noted: MIV-711 30 µmol/kg. From the text: The study design and animal usage were reviewed and approved by the IACUC at Preclinical Research Services (PCRS; Fort Collins, CO) for compliance with regulations before study initiation (IACUC Number 1021). Animal welfare, housing and research procedures for this study complied with the U.S. Department of Agriculture’s (USDA) Animal Welfare Act (9 CFR Parts 1, 2, and 3), the Guide for the Care and Use of Laboratory Animals, and PCRS Standard of Procedures. Thirty adult naïve female beagle dogs, with a weight of 7.5–11.3 kg and an age of approximately 6–8 months at study initiation, were used for this study. The dogs were acclimated for at least 7 days before study initiation.
At least 12 h before surgery, a fentanyl transdermal 2.5 mg patch was placed on the skin on the ventral aspect of the tail of each dog and secured into place with tape. The fentanyl patch delivered approximately 25 μg/h of analgesia for a total duration of 72–80 h. Dogs were also pre-medicated before surgery with glycopyrrolate (0.005–0.02 mg/kg), acepromazine (0.01–0.05 mg/kg) and morphine (0.5–1.0 mg/kg) injected subcutaneously. General anesthesia was induced using propofol (2–6 mg/kg) given intravenously; each dog was then intubated and maintained on isoflurane in oxygen (0.5–5%) administered to effect. The hair over the surgical site was clipped, and a preliminary aseptic prep of the area was done by alternating scrubs of chlorhexidine surgical scrub and sterile dry gauze sponges. A local anesthetic line block of lidocaine and bupivacaine (1.5 mg each) diluted in saline was administered at the incision site to provide local pre-emptive anesthesia. The limb was draped with a sterile fenestrated surgical drape. A small 2 cm medial parapatellar skin incision and a subsartorius capsular approach were made to expose the meniscus. For removal of the anterior one-half of the medial meniscus, the cranial meniscotibial ligament was incised, and the capsular attachments to the cranial pole of the meniscus were separated sharply with a scalpel under direct vision, sparing injury to the articular cartilage or the ACL. The medial meniscus was reflected medially with a hemostat. […] Animals were monitored closely throughout the recovery and post-operative period. […]
All animals were humanely euthanized on Day 29 to collect specimens for pathology. […] At study termination, the left (operated) knee was opened, disarticulated and the lesions on the medial tibia and femur measured, described and photographed. […] Lesions were classified as more severe or less severe depending on the intensity of India ink staining or perception of depth and areas for each calculated. Gross cartilage lesions were measured (length × width) and described as superficial, moderate, or deep. […]

For assay [3], the system named is CTX-II. Briefly: Urinary CTX-II in dogs subjected to partial medial meniscectomy. Conditions: dog, 30 µmol/kg. In kind it is in vivo. On the procedure: Dogs subjected to partial medial meniscectomy received either 30 µmol/kg MIV-711 (synthesized by Medivir and given as a suspension in 1% Methocel A4C; n = 15) or vehicle (1% Methocel A4C; n = 15) by orogastric gavage once daily in the morning. […] Dosing started the day before surgery and lasted through Day 28, the day before necropsy. Each dog was fasted for at least 12 h before dosing and food were returned approximately 4 h following test article administration.
Urine samples were collected from the animals 1 to 3 days before surgery and treatment (baseline sample), 4 to 7 days after the start of treatment (Day 7 sample) and 26 to 28 days after treatment (Day 28 sample). Dogs were housed in metabolic cages overnight during urine collection. […]
In rabbits, conventional CTX-I assays to assess bone resorption cannot be used due to species differences. Instead, urinary helical peptide (HP-1) concentrations were measured in rabbits using the MicroVue Helical Peptide kit (Ref: 8022) from Quidel (San Diego, CA) according to the instructions supplied by the manufacturer. In dogs, urinary levels of C-terminal telopeptide of collagen type I (CTX-I) were measured using a commercially available kit (Urine BETA CrossLaps ELISA, Ref: AC-05F1, IDS Nordic Bioscience Diagnostics A/S). […] In dogs, CTX-II levels were also measured in synovial fluid. […]

As to `C#C[C@@H]1CN(C(=O)[C@H](CC(C)C)NC(=O)c2ccc(-c3nc(N4CCN(C)CC4)sc3F)cc2)[C@@H]2C(=O)CO[C@H]12` [MIV-711], the “HP-1 levels decreased by up to, vs ACLT vehicle controls” value in assay [1] (ACLT rabbits, over doses 30 and 100 µmol/kg and time points) is given as “up to 72%”. Also, the “urinary HP-1 levels reduced by, vs ACLT rabbits treated with vehicle” value in assay [1] (after 4 weeks, 30 µmol/kg) is listed as 43%; in assay [1] (after 4 weeks, 100 µmol/kg) it was 68%; in assay [1] (after 7 weeks, 30 µmol/kg (p > 0.05)) it was 25%; in assay [1] (after 7 weeks, 100 µmol/kg), 51%; in assay [1] (after 10 days of dosing, 30 µmol/kg), 45%; in assay [1] (after 10 days of dosing, 100 µmol/kg) it was 72%. The figures for the “Macroscopic score, Calculated” value in assay [2] (Femur condyle) and in assay [2] (Tibia plateau) were 9.07 ± 4.78 and 23.88 ± 3.17, respectively. The “Macroscopic score, Subjective” value in assay [2] (Femur condyle) amounted to 1.13 ± 0.32; in assay [2] (Tibia plateau), 2.33 ± 0.21. Further, the “urinary CTX-II levels reduced by” value in assay [3] (Day 7, vs. baseline) is 80%; in assay [3] (Day 28, vs. baseline), 80%.
